Test results taken from article PMC9886550, “Molecular mechanism of topoisomerase poisoning by the peptide antibiotic albicidin” (Nature Catalysis, 2023).

What was measured:
[1] = test system: DNA gyrase; test: DNA gyrase supercoiling inhibition assay (initial IC50 determination); format: biochemical, E. coli; conditions: vs Albi-3
Procedure: For initial compound IC50 determination, DNA supercoiling experiments with DNA gyrase were performed in a total volume of 30 μl of gyrase buffer (Inspiralis). The reactions contained 500 ng relaxed pBR322 plasmid DNA, 1.5 U DNA gyrase (6 U μl^−1) and albicidin derivatives at a final concentration of between 2.5 and 320 nM. The final DMSO concentration used was 3%. Samples were incubated at 37 °C for 30 min and subsequently loaded on an agarose gel. Electrophoretic analysis was performed using a 1% agarose gel (100 V, 90 min). DNA bands were stained with ethidium bromide and subsequently quantified using ImageJ 1.53k software.
Extended Data Fig. 8 Inhibition of supercoiling by Albi-1/2/3. a. Chemical structures of Albi-1, Albi-2 and Albi-3. b. Example supercoiling inhibition assay gels: Albi-1, decreasing concentrations (320, 160, 80, 40, 20, 10, 5, 2.5 nM); Albi-2 (320, 160, 80, 40, 20 nM); Albi-3 (960, 800, 640, 480, 320, 160, 80, 40 nM). First lane - relaxed pBR322; second lane - DNA gyrase. 40 nM albicidin was used as positive control (third lane). Different concentrations were tested and representative gels are shown.

[2] = format: physicochemical; conditions: 100 µM in Topo IV assays
Procedure: Supplementary Figure 11. Activity of albicidin and Albi-1/2/3 on E. coli topoisomerase IV. a. Plasmid relaxation activity of E. coli topo IV in the presence of albicidin, Albi-1, Albi-2 and Albi-3. First lane: negatively supercoiled pBR322; second lane: innate relaxation activity of E. coli topo IV (12.5 nM); third lane: effect of 20 µM CFX; subsequent lanes: effect of increasing compound concentration (0.1, 1, 10, 100 […]
higher concentration. b. Cleavage activity of E. coli topo IV in the presence of albicidin, Albi-1, Albi-2 and Albi-3. First lane: negatively supercoiled pBR322; second lane: innate cleavage activity of E. coli topo IV (15 nM); third lane: effect of 20 µM CFX; subsequent lanes: effect of increasing compound concentration (0.1, 1, 10, 100 µM). […]
concentration. All experiments were carried out in triplicates and representative gels […]
(1 picture or pasted object on this page, not shown here)

| SMILES | better activity in the gyrase inhibition assay than Albi-3 [1] | solubility in assay [2] |
| --- | --- | --- |
| COc1c(NC(=O)c2ccc(NC(=O)c3ccc(NC(=O)[C@H](Cc4c[nH]nn4)NC(=O)c4ccc(NC(=O)c5ccc6cc(O)ccc6c5)cc4)cn3)c(OCCN)c2O)ccc(C(=O)O)c1O [Albi-2] | ~ 4 fold |  |
| COc1c(NC(=O)c2ccc(NC(=O)c3ccc(NC(=O)[C@H](Cc4c[nH]nn4)NC(=O)c4ccc(NC(=O)c5ccc6nc(C)ccc6c5)cc4)cn3)c(OC)c2O)ccc(C(=O)O)c1O [Albi-3] |  | solubility issues |
